Laboratory results: US12692254B2, “Benzimidazole inhibitors of PAD enzymes” (BRISTOL-MYERS SQUIBB COMPANY, priority 2018, dated 2026)

Biological target: human PAD4 (hPAD4) (Homo sapiens, UniProt Q9UM07)
Assay: RFMS human PAD4 functional assay (rapid-fire mass spectrum)
Format: biochemical
Settings: 5 nM hPAD4 enzyme, 250 μM BAEE, 50 μM Calcium; 30 min preincubation, 90 min reaction at 37° C.
In short: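 PAD4 (10 nM) preincubated 30 min with compound (top final 50 μM), then BAEE substrate added in pH 7.5 HEPES buffer with DTT, 50 μM calcium, TPEN; 90 min at 37° C. After TCA quench, citrulline derivatized with phenyl glyoxal (4 mM final, 30 min, 37° C) and quantified by RapidFire MS against internal standard.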

Sequence of human PAD4 (hPAD4) (Q9UM07 whole entry): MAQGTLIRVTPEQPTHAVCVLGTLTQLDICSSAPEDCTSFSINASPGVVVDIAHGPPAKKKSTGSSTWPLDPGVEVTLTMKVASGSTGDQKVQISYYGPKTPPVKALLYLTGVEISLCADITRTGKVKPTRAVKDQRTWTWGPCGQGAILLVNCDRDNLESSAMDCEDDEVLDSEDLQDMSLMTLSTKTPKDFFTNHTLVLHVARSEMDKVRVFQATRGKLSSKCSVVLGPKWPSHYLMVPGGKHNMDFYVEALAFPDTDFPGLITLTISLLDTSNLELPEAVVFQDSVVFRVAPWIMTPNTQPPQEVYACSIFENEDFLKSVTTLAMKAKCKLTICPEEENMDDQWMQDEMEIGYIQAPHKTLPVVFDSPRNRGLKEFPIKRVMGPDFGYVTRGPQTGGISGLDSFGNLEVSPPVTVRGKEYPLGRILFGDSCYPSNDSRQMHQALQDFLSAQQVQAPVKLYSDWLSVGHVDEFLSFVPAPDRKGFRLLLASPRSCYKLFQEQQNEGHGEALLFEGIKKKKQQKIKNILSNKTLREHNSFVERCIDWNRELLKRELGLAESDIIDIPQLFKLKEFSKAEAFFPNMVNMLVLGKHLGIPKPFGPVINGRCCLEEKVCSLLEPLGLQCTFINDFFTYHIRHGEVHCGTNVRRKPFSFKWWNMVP

Row | Compound | IC50
1 | COc1cccc(-n2cc(Cn3c(-c4cc5cccnc5n4CC4CC4)nc4cc(C(=O)N5C[C@H](N)C[C@@H](F)C5)cc(OC)c43)cn2)n1 [Example 369, (3R,5R)-1-{2-[1-(cyclopropylmethyl)-1H-pyrrolo[2,3-b]pyridin-2-yl]-7-methoxy-1-{[1-(6-methoxypyridin-2-yl)-1H-pyrazol-4-yl]methyl}-1H-1,3-benzodiazole-5-carbonyl}-5-fluoropiperidin-3-amine] | 29 nM
2 | COc1cc(C(=O)N2C[C@H](N)C[C@@H](F)C2)cc2nc(-c3cc4cccnc4n3CC3CC3)n(Cc3cnn(-c4ncc(F)cc4F)c3)c12 [Example 393, (3R,5R)-1-{2-[1-(cyclopropylmethyl)-1H-pyrrolo[2,3-b]pyridin-2-yl]-1-{[1-(3,5-difluoropyridin-2-yl)-1H-pyrazol-4-yl]methyl}-7-methoxy-1H-1,3-benzodiazole-5-carbonyl}-5-fluoropiperidin-3-amine] | 49 nM
3 | COc1cc(C(=O)N2C[C@H](N)C[C@@H](F)C2)cc2nc(-c3cc4cccnc4n3CC3CC3)n(Cc3cnn(-c4cccn(C)c4=O)c3)c12 [Example 347, 3-[4-({5-[(3R,5R)-3-amino-5-fluoropiperidine-1-carbonyl]-2-[1-(cyclopropyimethyl)-1H-pyrrolo[2,3-b]pyridin-2-yl]-7-methoxy-1H-1,3-benzodiazol-1-yl}methyl)-1H-pyrazol-1-yl]-1-methyl-1,2-dihydropyridin-2-one] | 97 nM
4 | COc1cc(C(=O)N2CC3CCC2[C@@H]3N)cc2nc(-c3cc4cccnc4n3CC3CC3)n(C3CN(S(=O)(=O)c4ccc(Cl)nc4)C3)c12 (some centres unmarked) [Example 337] | 479 nM
5 | COc1cc(C(=O)N2C[C@H]3CC[C@@H]2[C@@H]3N)cc2nc(-c3cc4ccccc4n3C)n(CC3CN(c4cncc(C#N)c4)C3)c12 [Example 22, 5-[3-({5-[(1R,4R,7R)-7-amino-2-azabicyclo[2.2.1]heptane-2-carbonyl]-7-methoxy-2-(1-methyl-1H-indol-2-yl)-1H-1,3-benzodiazol-1-yl}methyl)azetidin-1-yl]pyridine-3-carbonitrile] | 60 nM
6 | COc1cc(C(=O)N2C[C@H]3CC[C@@H]2[C@@H]3N)cc2nc(-c3cc4cccnc4n3CC3CC3)n(C3CN(S(C)(=O)=O)C3)c12 [Example 330, (1R,4R,7R)-2-{2-[1-(cyclopropylmethyl)-1H-pyrrolo[2,3-b]pyridin-2-yl]-1-(1-methanesulfonylazetidin-3-yl)-7-methoxy-1H-1,3-benzodiazole-5-carbonyl}-2-azabicyclo[2.2.1]heptan-7-amine] | 184 nM
7 | COc1cc(C(=O)N2C[C@H]3CC[C@@H]2[C@@H]3N)cc2nc(-c3cc4ccccc4n3C)n(CC3CN(c4cncc(C#N)n4)C3)c12 [Example 41, 6-[3-({5-[(1R,4R,7R)-7-amino-2-azabicyclo[2.2.1]heptane-2-carbonyl]-7-methoxy-2-(1-methyl-1H-indol-2-yl)-1H-1,3-benzodiazol-1-yl}methyl)azetidin-1-yl]pyrazine-2-carbonitrile] | 100 nM
8 | COc1cc(C(=O)N2CC3CCC2[C@@H]3N)cc2nc(-c3cccn3CC3CC3)n(CC3CN(c4cncc(C#N)n4)C3)c12 (stereo partly drawn) [Example 313, 6-[3-({5-[(1R,4R,7R)-7-amino-2 azabicyclo[2.2.1]heptane-2-carbonyl]-2-[1-(cyclopropylmethyl)-1H-pyrro1-2-yl]-7-methoxy-1H-1,3-benzodiazol-1-yl}methyl)azetidin-1-yl]pyrazine-2-carbonitrile] | 403 nM

Other lines, results leading:

Row | IC50 | Compound
9 | 34 nM | COc1cc(C(=O)N2CC3CCC2[C@@H]3N)cc2nc(-c3cc4ccccc4n3CC3CC3)n(CC3CN(C(=O)c4cnccn4)C3)c12 (stereo partly drawn) [Example 436, (7R)-2-{2-[1-(cyclopropylmethyl)-1H-indol-2-yl]-7-methoxy-1-{[1-(pyrazine-2-carbonyl)azetidin-3-yl]methyl}-1H-1,3-benzodiazole-5-carbonyl}-2-azabicyclo[2.2.1]heptan-7-amine]
10 | 140 nM | COc1cc(C(=O)N2CC3CCC2[C@@H]3N)cc2nc(-c3cc4ccccc4n3CC3CC3)n(Cc3ccccc3)c12 (some centres unmarked) [Example 270]
11 | 29 nM | COc1cc(C(=O)N2CC3CCC2[C@@H]3N)cc2nc(-c3cc4cccnc4n3CC3CC3)n(CC3CN(C(=O)c4ccc(Cl)cc4)C3)c12 (stereo partly drawn) [Example 429, (7R)-2-(1-{[1-(4-chlorobenzoyl)azetidin-3-yl]methyl}-2-[1-(cyclopropylmethyl)-1H-pyrrolo[2,3-b]pyridin-2-yl]-7-methoxy-1H-1,3-benzodiazole-5-carbonyl)-2-azabicyclo[2.2.1]heptan-7-amine]
12 | 80 nM | COc1cc(C(=O)N2C[C@H](N)CC[C@@H]2C)cc2nc(-c3cc4ccccc4n3CC3CC3)n(CC3CN(C(=O)c4ccc(C#N)cc4)C3)c12 [Example 176, 4-[3-({5-[(2S,5R)-5-amino-2-methylpiperidine-1-carbonyl]-2-[1-(cyclopropylmethyl)-1H-indol-2-yl]-7-methoxy-1H-1,3-benzodiazol-1-yl}methyl)azetidine-1-carbonyl]benzonitrile]
13 | 26 nM | COc1cc(C(=O)N2C[C@H]3CC[C@@H]2[C@@H]3N)cc2nc(-c3cc4ccccc4n3CC3CC3)n(CC3CN(C(=O)c4ccccc4F)C3)c12 [Example 164, (1R,4R,7R)-2-{2-[1-(cyclopropylmethyl)-1H-indol-2-yl]-1-{[1-(2-fluorobenzoyl)azetidin-3-yl]methyl}-7-methoxy-1H-1,3-benzodiazole-5-carbonyl}-2-azabicyclo[2.2.1]heptan-7-amine]
14 | 153 nM | COc1cc(C(=O)N2C[C@H]3CC[C@@H]2[C@@H]3N)cc2nc(-c3cc4cccnc4n3CC3CC3)n(C[C@@H]3CCN(c4ccnc(C)n4)C3)c12 [Example 216, (1R,4R,7R)-2-{2-[1-(cyclopropylmethyl)-1H-pyrrolo[2,3-b]pyridin-2-yl]-7-methoxy-1-{[(3R)-1-(2-methylpyrimidin-4-yl)pyrrolidin-3-yl]methyl}-1H-1,3-benzodiazole-5-carbonyl}-2-azabicyclo[2.2.1]heptan-7-amine]
15 | 583 nM | COc1cc(C(=O)N2C[C@H]3CC[C@@H]2[C@@H]3N)cc2nc(-c3cc4cccnc4n3CC3CC3)n(C3CN(C(=O)c4ccncc4)C3)c12 [Example 189, (1R,4R,7R)-2-{2-[1-(cyclopropylmethyl)-1H-pyrrolo[2,3-b]pyridin-2-yl]-7-methoxy-1-[1-(pyridine-4-carbonyl)azetidin-3-yl]-1H-1,3-benzodiazol-5-carbonyl}-2-azabicyclo[2.2.1]heptan-7-amine]
16 | 35 nM | N[C@@H]1C2CCC1N(C(=O)c1ccc3c(c1)nc(-c1cc4ccccc4n1CC1CC1)n3CC1CN(C(=O)c3ccccc3)C1)C2 (stereo partly drawn) [Example 170, (1R,4R,7R)-2-{1-[(1-benozylazetidin-3-yl)methyl]-2-[1-(cyclopropylmethyl)-1H-indol-2-yl]-1H-1,3-benzodiazol-5-carbonyl}-2-azabicyclo[2.2.1]heptan-7-amine]
17 | 73 nM | COc1cc(C(=O)N2C[C@H]3CC[C@@H]2[C@@H]3N)cc2nc(-c3cc4cccnc4n3CC3CC3)n(CC3CN(C(=O)c4ccc(Cl)nc4)C3)c12 [Example 120, (1R,4R,7R)-2-(1-{[1-(6-chloropyridine-3-carbonyl)azetidin-3-yl]methyl}-2-[1-(cyclopropylmethyl)-1H-pyrrolo[2,3-b]pyridin-2-yl]-7-methoxy-1H-1,3-benzodiazole-5-carbonyl)-2-azabicyclo[2.2.1]heptan-7-amine]
